Paper PMC11642994, “AGC family kinase of Entamoeba histolytica: Decoding the members biochemically” (PLOS Pathogens, 2024)
Where “and” joins values, the source holds several entries; their conditions need not be identical. Equal values may be shown once. Entries after “also recorded” stand apart in the source; their conditions may differ. Read-outs that look alike come from different tables or passages of the source.

Legend:
EhAGCK2 = assay: ADP-Glo kinase assay with peptide substrates / ATP, EhAGCK2 WT; assay type: biochemical, Entamoeba histolytica; details: for ATP Vmax / Km: mean ± SE, n = 6
Description: (§1) The phosphorylation activity of kinases was measured using the ADP-Glo kinase assay kit according to the manufacturer’s protocol with few modifications (Promega, Madison, WI, Catalogue number V6930). Assays were performed in a Corning 384-well low-volume white round bottom polystyrene NBS microplate with a total volume of 32 μl in the ratio of 1:1:2, corresponding to the kinase reaction, ADP-Glo reagent, and detection reagent, respectively. The kinase reaction was performed in an 8 μl volume containing 4 μl of purified protein kinases, 2 μl of peptide substrate, and 2 μl of ATP (Promega, Madison, WI). The working concentration of all the kinase reaction components was prepared in the standard kinase assay buffer (40 mM Tris-Cl pH 7.5, 20 mM MgCl2, 2 mM DTT). Along with other controls, only buffer-negative controls without protein kinase, substrate, and ATP were included in the kinase assay. Kinase assay reactions in each well were started immediately by adding ATP. The reactions were allowed to continue for 1 h at 30°C in the incubator chamber without shaking. The kinase assay was quenched by adding 8 μl of ADP-Glo reagent in each well before adding ADP-Glo reagent. The reaction plate was incubated for 5 min at room temperature. Termination reactions were allowed to proceed for 40 min at room temperature. ADP-Glo reagent, in addition to quenching the reaction, scavenges the unconsumed ATP from the reaction. In the final step of the ADP-Glo kinase assay, 16 μl of kinase detection reagent was added to each well and incubated for 40 min to simultaneously convert ADP to ATP and allow the newly synthesised ATP to be measured using a luciferase/luciferin reaction. The luminescent signal generated was measured using a SpectraMax i3x Multi-Mode Microplate Reader (Molecular Devices), and it was proportional to the ADP concentration produced and correlated with the kinase activity.
(§2) Standard curves were constructed by plotting the saturating relative light units (RLU) for each sample against the concentration of the peptide substrate or ATP in the reaction, following the previously reported method. The slope of the standard curve was determined and used to convert the reaction rate velocities. Velocities were expressed in μM/min by calculating the rate of reaction (DY/DX) for each reaction, where DY represented the difference between the luminescence measurements at the beginning and end of the reaction, and DX denoted the duration of the reaction (total time of reaction: 60 min). The converted velocities were plotted against the substrate concentration, and the data were fitted to the Michaelis-Menten equation to determine Km and Vmax.
(§3) The kinase assay data presented here are the mean ± standard error (SE) of n≥3 of three independent experiments. The Km and Vmax were determined from a direct, nonlinear fit of [V] versus [S] plots using the Michaelis-Menten equation: V=Vmax[S]/Km+[S] using the GraphPad Prism 9.0 software package (GraphPad Software Inc., CA, USA). Additionally, the Microscale Thermophoresis (MST) experiments were conducted using the Monolith NT.11.5 instrument, with triplicate runs. Statistical comparisons were made using Student’s t-test. Differences in mean values were considered significant at *p-value≤0.05, **p-value≤0.01, ***p-value≤0.001, ****p-value≤0.0001.

EhAGCK1 = assay: ADP-Glo kinase assay with peptide substrates / ATP, EhAGCK1 WT; assay type: biochemical, Entamoeba histolytica; details: for phosphorylation by EhAGCK1 WT (words): 1 hr
Description: as §1, §2, §3

autophosphorylation = assay: ATP biotinylation kinase assay (autophosphorylation, SA-HRPO western blot); assay type: biochemical, Entamoeba histolytica; details: 4 μM kinase (EhPDK1 2 μM), 20 μM biotin-labelled ATP, 40 mM Tris-Cl pH 7.8, 10 mM MgCl2, 2 mM DTT, 30°C, 1 h
Description: ATP biotinylation assays were performed in the presence of 4 μM of EhAGCK1 (WT, T275D, and KDD1) and EhAGCK2 (WT, T274D, and KDD2) along with 2 μM of wild-type EhPDK1 in the presence of activation buffer 40 mM Tris-Cl pH 7.8, 10 mM MgCl2, and 2 mM DTT and incubated at 30°C for 1 h. The reaction was triggered by adding 20 μM biotin-labelled ATP (Catalogue NU-970-BIO, Jena Bioscience). 20 μl of the reaction was collected at the indicated time point and quenched by the addition of 4x SDS-loading dye. After gel electrophoresis, phosphorylated proteins were visualized by immunoblotting using HRPO-conjugated streptavidin (Invitrogen).
ATP biotinylated protein samples were separated by SDS-PAGE and then electro-transferred to PVDF membrane (Pall life sciences). The membrane was blocked overnight by 5% BSA (G-Biosciences) in TBS-T (TBS with 0.1% Tween 20) and stained with Ponceau S. This blocking process was done overnight at 4°C. The membrane was then incubated with 1:1000 dilution of HRPO-conjugated streptavidin (Invitrogen) at room temperature. Following antibody incubation, the blots were carefully cleaned with TBS-T. Band detection was carried out with a Millipore ECL kit.

HsGSK3 peptide = assay: ADP-Glo kinase activity of kinase variants with human GSK3 peptide in MgCl2 and MnCl2 buffers; assay type: biochemical; details: for kinase activity with HsGSK3 peptide in Mg2+ / without Mn2+ (words): kinase 0-80 μM
Description: as §1, §3

[1] = S3 Table, ADP-Glo, Michaelis-Menten fit at various substrate concentrations, 20 μM kinase, 250 μM ATP, read-out: Peptide Km in the presence of EhAGCK2
[2] = S3 Table, ADP-Glo, Michaelis-Menten fit at various substrate concentrations, 20 μM kinase, 250 μM ATP, mean ± SE, n = 6, read-out: Peptide Km in the presence of EhAGCK1

Nc1ncnc2c1ncn2[C@@H]1O[C@H](COP(=O)(O)OP(=O)(O)OP(=O)(O)O)[C@@H](O)[C@H]1O [ATP, reference compound]
ATP Vmax (EhAGCK2; EhAGCK2 WT 20 μM, 50 μM EhCoactosin peptide substrate, ATP 0-1000 μM): 444.4 ± 18.5 µM/min
Km (EhAGCK2; EhAGCK2 WT 20 μM, 50 μM EhCoactosin peptide substrate, ATP 0-1000 μM, read-out: ATP Km): 92.1 ± 16 µM
ATP Vmax (EhAGCK2; EhAGCK2 WT 20 μM, 50 μM HsGSK3 peptide substrate, ATP 0-1000 μM): 271.4 ± 30.5 µM/min
Km (EhAGCK2; EhAGCK2 WT 20 μM, 50 μM HsGSK3 peptide substrate, ATP 0-1000 μM, read-out: ATP Km): 292 µM and 291 µM
Km (EhAGCK1; EhAGCK1 WT 20 μM, 50 μM EhRhoGEF peptide substrate, ATP 0-1000 μM, mean ± SE, n = 6, read-out: ATP Km): 125 ± 16 µM
ATP Vmax (EhAGCK1; EhAGCK1 WT 20 μM, 50 μM HsGSK3 peptide substrate, ATP 0-1000 μM, mean ± SE, n = 6): 260.7 ± 9.4 µM/min
Km (EhAGCK1; EhAGCK1 WT 20 μM, 50 μM HsGSK3 peptide substrate, ATP 0-1000 μM, mean ± SE, n = 6, read-out: ATP Km): 242 ± 22.2 µM

ELDSDEEQKELER [Filamin-A interacting protein]
Km (EhAGCK2; [1]): 0.147 µM
phosphorylation by EhAGCK1 WT (words) (EhAGCK1; 20 μM EhAGCK1 WT, 250 μM ATP): recognized as substrates by EhAGCK1 WT
phosphorylation by EhAGCK1 WT (words) (EhAGCK1; 20 μM EhAGCK1 WT, 250 μM ATP, listed as Filamin-A-interacting protein): specifically phosphorylated
Km (EhAGCK1; ADP-Glo luminescence, 20 μM EhAGCK1 WT, 250 μM ATP, peptide 0-200 μM, 30°C, 60 min, standard buffer 40 mM Tris-Cl pH 7.5, 20 mM MgCl2, 2 mM DTT, Michaelis-Menten fit, mean ± SE, n = 6, read-out: Km (peptide substrate)): 3.28 ± 1.19 µM
Km (EhAGCK1; [2]): 3.28 ± 1.19 µM

KSPTIDEIK [Hypothetical protein, peptide 133-141 of E. histolytica Hypothetical protein (EHI_025430)]
Km (EhAGCK2; [1]): 0.197 ± 0.08 µM
phosphorylation by EhAGCK1 WT (words) (EhAGCK1; 20 μM EhAGCK1 WT, 250 μM ATP): notable phosphorylation by EhAGCK1
Km (EhAGCK1; [2]): 2.56 ± 0.99 µM

KTITPVVEDPCER [HEAT repeat domain-containing protein, peptide 661-673 of E. histolytica HEAT repeat domain-containing protein (EHI_050150)]
Km (EhAGCK2; [1]): 0.262 ± 0.2 µM
phosphorylation by EhAGCK1 WT (words) (EhAGCK1; 20 μM EhAGCK1 WT, 250 μM ATP): notable phosphorylation by EhAGCK1
Km (EhAGCK1; [2]): 3.62 ± 1.34 µM

MAGIQLADEVTSVYNDF KLSHKYRYIV [Actophorin, peptide 1-27 of E. histolytica Actophorin (EHI_197480)]
Km (EhAGCK2; [1]): 0.258 ± 0.09 µM
Km (EhAGCK1; [2]): 2.83 ± 1.69 µM

RRESVDYTNNK [Unconventional Myosin IB, peptide 754-764 of E. histolytica Unconventional myosin IB (EHI_110810)]
phosphorylation by EhAGCK2 WT (EhAGCK2; 20 μM EhAGCK2 WT, 250 μM ATP, 1 hr): recognised as substrates by EhAGCK2 WT; also recorded: accepted as substrates by EhAGCK2 WT
Km (EhAGCK2; ADP-Glo luminescence, 20 μM EhAGCK2 WT, 250 μM ATP, peptide 0-200 μM, 30°C, 60 min, standard buffer 40 mM Tris-Cl pH 7.5, 20 mM MgCl2, 2 mM DTT, Michaelis-Menten fit, read-out: Km (peptide substrate)): 1.34 ± 0.57 µM
Km (EhAGCK2; [1]): 1.34 ± 0.57 µM
Km (EhAGCK1; [2]): 3.63 ± 2.58 µM

SALDNGTYSPLLSPTR [RhoGEF-1, peptide 236-251 of E. histolytica RhoGEF-1 (EHI_159500)]
Km (EhAGCK2; [1]): 0.271 ± 0.17 µM
Km (EhAGCK1; [2]): 4.42 ± 2.75 µM

B1: KDD2: kinase-dead domain EhAGCK2 (K147A and D242A) (protein)
chain: MSVKTGWGIKEGGSWKTWKRRMFKLSEGKIEYFKDEGMTKKMGDIELSKVTHVLAVDQYKKRKNLIRIITPSRTYHISVNEESDRDSWVEAIRGMIGDNKEKKTQEEKEENKISMEDFDIITLLGKGAFGKVMLVKYKKEGKIYAMATVEKAQIIDSNEVEHILSEKVVLSQINNPFLVNMHYSFQTPTHLVFILDYCAGGELFSYLQKHPAGLPEVDVKFYAAQIVLALEHMHSTGIIYRAIKPENILFEKDGYLRMTDFGLAKSTKKGTTNTFCGTPEYLAPEVVEGLDYNEYIDWWGLGILIYEMLFTQSPFLAETMEELYENILQREPKYPSTKPITEECMNFINSLLIKEPSKRLTDPDQIKTHPWFNGFNFDDLYKKKLTPPYVPKIQSQTDTSNFDDEITQEEVDLKTGVEVVADNRFFTDFTYVQK
modifications: left off: His tag, end not stated, kept
autophosphorylation activity (words) (autophosphorylation): remain inactive

B2: EhAGCK1 WT: recombinant full-length wild-type His-tagged AGC family kinase 1 of E. histolytica (protein)
chain: MEEKTQGWLMKEGGSWKSWKKRYFVLDNDTLYYYKEQDKKTLMGTMNLSLATHITAVDNYHKKYENIIRICTPSRTFHLSAANEEERLAWLTSIICHSEKTNICKPRISSVPVTQKDFDVKCLLGKGAYGKVFLVEMISTHEIFAMKTIEKKQIIEYEEIEHTMSERRILSKLHHPFLVNLYYSFQTPTHLFYIIDYCPGGEFYYYLQKNGKVSEEDAKFYAAQILLAIEHLHSSNIVYRDIKPENILIGADGYLRLTDFGLSKENVTKENTTSTFCGTPEYLAPEVVVGKDYSEPVDWWGFGILIYEMIHGHAPFTSEDIQQLFQKIIHDPVSFPSASYPSADCKECIVMLLEKDPEKRLTDPNRIKSHCWFKGFDWEGLFQKKLSPPFVPVLKDKTDTSNFNEDIINETAKIDEGEVVDSKDYFNDFTYCK
modifications: left off: His tag, end not stated, kept
notes: recombinant full-length wild-type His-tagged AGC family kinase 1 of E. histolytica
kinase activity with HsGSK3 peptide in Mg2+ / without Mn2+ (words) (HsGSK3 peptide; 50 μM HsGSK3 peptide, 250 μM ATP): did not utilize the HsGSK3 peptide as a substrate
kinase activity with HsGSK3 peptide in Mg2+ / without Mn2+ (words) (HsGSK3 peptide; 50 μM HsGSK3 peptide, 250 μM ATP, listed as EhAGCK1): could not accept HsGSK3 peptide as substrate
ion preference for kinase activity (HsGSK3 peptide; MgCl2 versus MnCl2 buffer, HsGSK3 peptide): only active in the presence of MnCl2 buffer; also recorded: maximum kinase activity in the presence of Mn^2+
increase in kinase activity with HsGSK3 peptide in presence of Mn2+ (HsGSK3 peptide; Mn2+ present, 50 μM HsGSK3 peptide, 250 μM ATP): 16 fold
Fold change (MgCl2: MnCl2) (HsGSK3 peptide; S1 Table, kinase activity in MgCl2 and MnCl2 buffers, 50 μM HsGSK3 peptide, 250 μM ATP, 60 min, 30°C): 15.67
autophosphorylation activity (words) (autophosphorylation): exhibited autophosphorylation activity
autophosphorylation activity (words) (autophosphorylation; listed as EhAGCK1): able to accept biotin-ATP as substrate and underwent autophosphorylation
